# Test results: US11903992B2, “Composition comprising lidocaine, l-carnosine and dexpanthenol” (Cellix Bio Private Limited, priority 2021, dated 2024)
# How the values were obtained:
# [1] = Stability observations during development of the formulation; type: physicochemical; settings: during development of the oral rinse formulation
# Excerpt: In an embodiment, the composition is formulated as an oral rinse formulation. It could also be noted during development of the formulation that L-Carnosine tends to increase the pH of the composition to about 8.5, which tend to increase the degradation of lidocaine. […] During the experimentation, it could be noted that presence of a buffer (e.g. a citrate buffer) and an anti-oxidant (e.g. sodium metabisulfite) in the composition, while maintaining pH of the resultant composition/formulation around 6.5±1 (i.e. ranging from about 5.5 to about 7.5), preferably at 6.5±0.5 and more preferably, at 6.5±0.2 affords dramatic improvement in the shelf life of the composition/formulation.
# [2] = pH of the formulation (pH meter); type: physicochemical; settings: during development of the formulation; tends to increase degradation of lidocaine
compound,measurement,setting,value
CC(C)(CO)[C@@H](O)C(=O)NCCCO [Dexpanthenol],stability observation of the ingredient,[1],requires neutral pH for stability
NCCC(=O)N[C@@H](Cc1cnc[nH]1)C(=O)O [L-Carnosine],pH of the composition as increased by L-Carnosine,[2],about 8.5
same,stability observation of the ingredient,[1],sensitive to oxygen tend to degrade
